Relative viability data for five cell lines are collected here from the supplement of paper PMC10307832.

Experiment in all cases: relative viability (nuclei count vs DMSO), 5 days (fraction); higher = more cells survive
Compound in one test: CC1=C(C=CC(=C1)[N+](=O)[O-])NS(=O)(=O)C2=C(C=CC(=C2)Cl)Cl [FH535]
The method, boiled down:
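On vehicle-anchored 1536-well plates, lung cancer cell lines held overnight at 37 °C were pinned with five library-drug doses (not always all listed) spaced by √10. With no medium change over 5 days, they were then fixed, permeabilised and Hoechst-stained in one step and imaged at 4×. MetaXpress counted nuclei, and viability is the median across plates of treated-well over vehicle-well nuclei. Acceptance needed control CV below 25% and at least one doubling.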

Compound in the test “FH535 + Crizotinib”: CC1=C(C=CC(=C1)[N+](=O)[O-])NS(=O)(=O)C2=C(C=CC(=C2)Cl)Cl [FH535] + C[C@@H](Oc1cc(-c2cnn(C3CCNCC3)c2)cnc1N)c1c(Cl)ccc(F)c1Cl [Crizotinib] (partner 1 µM)
An outline of the steps: (§1)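 Lung cancer cell lines, seeded in 1536-well plates, were treated the following day by pin tool with a single drug or with five library-drug doses (not always all listed) in √10 steps on top of a fixed anchor-drug dose. Cells were fixed and nuclei stained in one step after 5 days, and nuclei were counted. Relative viability is the nuclei count for treated wells divided by that for vehicle wells, reported as medians of duplicate plates.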

Compound in the test “FH535 + Alpelisib”: CC1=C(C=CC(=C1)[N+](=O)[O-])NS(=O)(=O)C2=C(C=CC(=C2)Cl)Cl [FH535] + Cc1nc(NC(=O)N2CCC[C@H]2C(N)=O)sc1-c1ccnc(C(C)(C)C(F)(F)F)c1 [Alpelisib] (partner 2 µM)
The method, boiled down: as §1

Compound in the test “FH535 + Dasatinib”: CC1=C(C=CC(=C1)[N+](=O)[O-])NS(=O)(=O)C2=C(C=CC(=C2)Cl)Cl [FH535] + Cc1nc(Nc2ncc(C(=O)Nc3c(C)cccc3Cl)s2)cc(N2CCN(CCO)CC2)n1 [Dasatinib] (partner 0.075 µM)
The method, boiled down:
as §1

Compound in the test “FH535 + Olaparib”: CC1=C(C=CC(=C1)[N+](=O)[O-])NS(=O)(=O)C2=C(C=CC(=C2)Cl)Cl [FH535] + O=C(c1cc(Cc2n[nH]c(=O)c3ccccc23)ccc1F)N1CCN(C(=O)C2CC2)CC1 [Olaparib] (partner 8 µM)
An outline of the steps:
as §1

On to NCI-H2347, for which the relative viability with FH535 (0.04 µM) came to 0.986; with FH535 (0.1265 µM), 0.974; with FH535 (0.4 µM) it was 1.02; in the test with FH535 (1.265 µM), 0.842; with FH535 + Crizotinib (first compound 0.04 µM), 0.677; with FH535 + Crizotinib (first compound 0.1265 µM), 0.617. Also, the relative viability stood at 0.807 with FH535 + Crizotinib (first compound 0.4 µM); 0.649 with FH535 + Crizotinib (first compound 1.265 µM); 1.01 in the test with FH535 + Alpelisib (first compound 0.04 µM); 1.09 with FH535 + Alpelisib (first compound 0.1265 µM); 0.966 in the test with FH535 + Alpelisib (first compound 0.4 µM); 0.837 with FH535 + Alpelisib (first compound 1.265 µM). Besides, the relative viability with FH535 + Dasatinib (first compound 0.04 µM) stood at 0.298; with FH535 + Dasatinib (first compound 0.1265 µM), 0.292; with FH535 + Dasatinib (first compound 0.4 µM) it was 0.294; with FH535 + Dasatinib (first compound 1.265 µM), 0.261; in the test with FH535 + Olaparib (first compound 0.04 µM), 0.525; with FH535 + Olaparib (first compound 0.1265 µM), 0.595. Further, the values for the relative viability with FH535 + Olaparib (first compound 0.4 µM) and with FH535 + Olaparib (first compound 1.265 µM) were 0.553 and 0.498, respectively.
As for NCI-H2405, the relative viability is 0.922 in the test with FH535 (0.04 µM); 0.967 with FH535 (0.1265 µM); 0.882 with FH535 (0.4 µM); 0.713 with FH535 (1.265 µM); 0.816 in the test with FH535 + Crizotinib (first compound 0.04 µM); 0.854 in the test with FH535 + Crizotinib (first compound 0.1265 µM). The relative viability with FH535 + Crizotinib (first compound 0.4 µM) was found to be 0.805; with FH535 + Crizotinib (first compound 1.265 µM), 0.725; with FH535 + Alpelisib (first compound 0.04 µM), 0.685; with FH535 + Alpelisib (first compound 0.1265 µM), 0.843; with FH535 + Alpelisib (first compound 0.4 µM), 0.84; with FH535 + Alpelisib (first compound 1.265 µM) it was 0.585. Moreover, the relative viability with FH535 + Dasatinib (first compound 0.04 µM) was found to be 0.202; in the test with FH535 + Dasatinib (first compound 0.1265 µM) it was 0.243; in the test with FH535 + Dasatinib (first compound 0.4 µM), 0.232; with FH535 + Dasatinib (first compound 1.265 µM) it was 0.221; in the test with FH535 + Olaparib (first compound 0.04 µM), 0.882; with FH535 + Olaparib (first compound 0.1265 µM), 0.832. In addition, the relative viability with FH535 + Olaparib (first compound 0.4 µM) is 0.765; with FH535 + Olaparib (first compound 1.265 µM), 0.524.
NCI-H3122: the relative viability is 0.933 with FH535 (0.04 µM); 0.995 with FH535 (0.1265 µM); 0.978 in the test with FH535 (0.4 µM); 0.885 with FH535 (1.265 µM); 0.261 with FH535 + Crizotinib (first compound 0.04 µM); 0.282 with FH535 + Crizotinib (first compound 0.1265 µM). Moreover, the relative viability with FH535 + Crizotinib (first compound 0.4 µM) came out at 0.253; with FH535 + Crizotinib (first compound 1.265 µM) it was 0.285; with FH535 + Alpelisib (first compound 0.04 µM), 0.715; in the test with FH535 + Alpelisib (first compound 0.1265 µM), 0.782; with FH535 + Alpelisib (first compound 0.4 µM), 0.829; with FH535 + Alpelisib (first compound 1.265 µM), 0.745. Further, the relative viability with FH535 + Dasatinib (first compound 0.04 µM) was found to be 0.703; with FH535 + Dasatinib (first compound 0.1265 µM), 0.782; with FH535 + Dasatinib (first compound 0.4 µM), 0.713; with FH535 + Dasatinib (first compound 1.265 µM), 0.719; with FH535 + Olaparib (first compound 0.04 µM), 0.631; with FH535 + Olaparib (first compound 0.1265 µM) it was 0.6. Also, the relative viability with FH535 + Olaparib (first compound 0.4 µM) worked out at 0.581; with FH535 + Olaparib (first compound 1.265 µM), 0.48.
Turning to PC-3 [JPC-3], the relative viability in the test with FH535 (0.04 µM) worked out at 0.971; with FH535 (0.1265 µM) it was 1.04; with FH535 (0.4 µM) it was 0.906; with FH535 (1.265 µM), 0.621; with FH535 + Crizotinib (first compound 0.04 µM), 0.957; in the test with FH535 + Crizotinib (first compound 0.1265 µM), 0.981. In addition, the relative viability came to 0.885 in the test with FH535 + Crizotinib (first compound 0.4 µM); 0.531 with FH535 + Crizotinib (first compound 1.265 µM); 1 in the test with FH535 + Alpelisib (first compound 0.04 µM); 1.07 with FH535 + Alpelisib (first compound 0.1265 µM); 0.951 in the test with FH535 + Alpelisib (first compound 0.4 µM); 0.686 in the test with FH535 + Alpelisib (first compound 1.265 µM). Moreover, the relative viability with FH535 + Dasatinib (first compound 0.04 µM) is 1.05; with FH535 + Dasatinib (first compound 0.1265 µM) it was 0.812; with FH535 + Dasatinib (first compound 0.4 µM), 0.837; with FH535 + Dasatinib (first compound 1.265 µM), 0.749; with FH535 + Olaparib (first compound 0.04 µM), 1.12; with FH535 + Olaparib (first compound 0.1265 µM), 1.08. For the same cell line, the relative viability worked out at 1.04 with FH535 + Olaparib (first compound 0.4 µM) and 0.733 with FH535 + Olaparib (first compound 1.265 µM).
On to PC-14, for which the relative viability came to 1.01 with FH535 (0.04 µM); 1.06 with FH535 (0.1265 µM); 0.989 in the test with FH535 (0.4 µM); 0.955 with FH535 (1.265 µM); 0.94 with FH535 + Crizotinib (first compound 0.04 µM); 0.917 with FH535 + Crizotinib (first compound 0.1265 µM). The relative viability amounted to 0.863 with FH535 + Crizotinib (first compound 0.4 µM); 0.889 with FH535 + Crizotinib (first compound 1.265 µM); 0.88 in the test with FH535 + Alpelisib (first compound 0.04 µM); 0.967 with FH535 + Alpelisib (first compound 0.1265 µM); 0.94 in the test with FH535 + Alpelisib (first compound 0.4 µM); 0.925 with FH535 + Alpelisib (first compound 1.265 µM). The relative viability was determined as 0.282 with FH535 + Dasatinib (first compound 0.04 µM); 0.287 with FH535 + Dasatinib (first compound 0.1265 µM); 0.251 with FH535 + Dasatinib (first compound 0.4 µM); 0.245 with FH535 + Dasatinib (first compound 1.265 µM); 0.242 in the test with FH535 + Olaparib (first compound 0.04 µM); 0.324 with FH535 + Olaparib (first compound 0.1265 µM). The relative viability worked out at 0.297 with FH535 + Olaparib (first compound 0.4 µM) and 0.233 with FH535 + Olaparib (first compound 1.265 µM).
